A short description of data set [1]: In vivo pharmacokinetic studies in rats (IV and PO dosing, plasma). To be noted: rat; for AUC0-∞ / CL / Vz / Cmax / Tmax: mean of N=4; for % F: 200 mg/kg PO vs IV, printed in AUC0-∞ column. Here is the method:
The pharmacokinetics of exemplary compounds was determined by comparison with 4-hydroxybutyric acid by dosing the compounds in rats according to the following study design and sampling procedure.

The conditions of data set [2]: humans; cited from earlier work.
The mark [3] stands for this setting: 200 mg/kg PO, mean of N=4, Cmin at 4 hr.
[4] abbreviates: 200 mg/kg IV, mean of N=4, Cmin at 2 hr.
[5] abbreviates: 200 mg/kg IV, mean of N=4, calculated up to 2 hr.
The mark [6] stands for this setting: 200 mg/kg PO, mean of N=4, calculated up to 4 hr.

Where a name gives a salt, the structure may show the parent alone.

Compound `O=C(O)CCCO` [4-hydroxybutyric acid, sodium salt, sodium salt of 4-hydroxybutyric acid, reference compound] registered a concentration at 2 hr in data set [1] (plasma, 200 mg/kg IV, mean of N=4, Cmin at 2 hr) of 8000 ng/mL. Also, the Cmin in data set [1] (setting [3]) amounted to 2000 ng/mL. For the same compound, the half life in data set [2] is 30 to 60 min.
On to `[2H]C([2H])(O)CC([2H])([2H])C(=O)[O-].[Na+]` [IV-b, sodium salt, Sodium 2,2,4,4-d4-4-hydroxybutanoate], for which, in data set [1] (200 mg/kg IV), the “AUC0-∞” value came out at 651 µg·h/mL, the CL turned out to be 5 mL/min/kg and the Vz came to 0.3 L/kg. The compound further had a Cmin in data set [1] (setting [4]) of 76000 ng/mL. Further, in data set [1] (setting [5]), the t1/2 is 37.8 min. Further, the “% F” value in data set [1] amounted to 40%. Moreover, in data set [1] (200 mg/kg PO), the “AUC0-∞” value was found to be 260 µg·h/mL, the Cmax is 151000 ng/mL and the Tmax is 37.8 min. The same compound gave a Cmin in data set [1] (setting [3]) of 5000 ng/mL. For the same compound, in data set [1] (setting [6]), the t1/2 was 56.4 min. Also, the “pharmacokinetics relative to 4-hydroxybutyric acid, sodium salt” value in data set [1] (200 mg/kg, comparison of AUC0-∞ and t1/2) is “considerably increased”.
On to `[2H]C([2H])(CCO)C(=O)[O-].[Na+]` [Sodium 2,2-d2-4-Hydroxybutanoate], for which, in data set [1] (200 mg/kg IV), the “AUC0-∞” value turned out to be 476 µg·h/mL, the CL worked out at 7 mL/min/kg and the Vz was 0.2 L/kg. This compound also showed a Cmin in data set [1] (setting [4]) of 19000 ng/mL. For the same compound, the t1/2 in data set [1] (setting [5]) was 19.8 min. In data set [1], the “% F” value is given as 41%. For the same compound, in data set [1] (200 mg/kg PO), the “AUC0-∞” value came to 193 µg·h/mL, the Cmax was found to be 153000 ng/mL and the Tmax amounted to 37.8 min. The Cmin in data set [1] (setting [3]) worked out at 1000 ng/mL. Moreover, in data set [1] (setting [6]), the t1/2 was 35.4 min. Besides, the “AUC0-∞ fold change (printed in brackets under the PO AUC)” value in data set [1] (200 mg/kg PO, reference not given, apparently vs 4-hydroxybutyric acid, sodium salt) was “(+1.1X)”.

The Cmax is the peak of the concentration-time curve. As a reminder, the Tmax is the time at which the peak concentration occurs.

(Values after patent US10040748B2, “4-hydroxybutyric acid analogs” (Concert Pharmaceuticals, Inc., priority 2011, dated 2018).)
